{"source": "paper PMC9065877", "about": "“Safety, tolerability and pharmacokinetics of the oligomer modulator anle138b with exposure levels sufficient for therapeutic efficacy in a murine Parkinson model: A randomised, double-blind, placebo-controlled phase 1a trial” (EBioMedicine, 2022)", "test": "Food effect study (FES), 150 mg single dose fed vs fasted, pharmacokinetics in healthy subjects, plasma", "type": "in vivo, human", "conditions": "for Cmax / AUC(0-t): po, 150 mg, FES 150 mg single oral dose, geometric mean (CV%); for AUC(0-t): read-out: AUC(0-24)", "description": "This was a single-centre, double-blind, randomised, placebo-controlled single ascending dose (SAD) and multiple ascending dose (MAD) study of anle138b in doses of up to 300 mg per day in healthy subjects. In addition, the effect of food (FES) on the PK of anle138b in healthy subjects was examined using single doses of 150 mg. Participants were recruited from Quotient Sciences (Nottingham, UK) volunteer database.\nThis dose was administered either i) after a standard FDA-approved high-fat breakfast or ii) in the fasted state i.e., fasted from all food and drink (except water) for a minimum of 8 h prior to dosing. In total, one cohort of 12 subjects was randomised in a 1:1 ratio to 2 treatment sequences (fed→fasted) or (fasted→fed). A minimum washout of at least 5 half-lives of anle138b between each dose was assured.\nSecondary outcome measures were the oral PK of single (SAD) and multiple (MAD) ascending doses of anle138b in the fasted state as well as the effect of co-administration with food on the PK of anle138b. To this end PK blood samples were taken at day 1 (and for MAD day 7) pre-dose and at 0·5, 1, 1·5, 2, 3, 4, 6, 8, 10, 12, 16 and 20 h post-dose, at days 2 to 6 pre-dose only (MAD) and 24, 30, 36 and 48 h post final dose. Analysis of anle138b in plasma was done at Aptuit, an Evotec company, in Verona, Italy. Time point of last quantifiable data was seen to increase with an increase in dose as follows: SAD: from the 50mg dose (subjects ranged between 8-24h) to the 300mg dose (subjects ranged between 36-48h). MAD: from the 100mg dose (subjects ranged between 8-36h) to the 300mg dose (subjects ranged between 20-48h). In FES, subjects ranged between 24-48h.\nThe study was exploratory and no formal sample size calculation was made. Based on experience from previous studies of similar design, eight subjects per cohort were enrolled for parts 1 (SAD) and 2 (MAD) and a total of twelve subjects for part 3 (FES). Populations and analysis sets were determined for safety and PK data after database lock using the criteria defined in the reporting and analysis plan. The safety population and safety analysis set for SAD and MAD were defined after database lock but prior to study unblinding. Statistical analysis and production of summary tables, figures and listings for all safety data (AEs, vital signs, ECGs and safety laboratory assessments) including changes from baseline as required in this study were performed using the statistical package SAS (v9·4). Additional statistics was provided for PK-related data including coefficient of variation (CV%), geometric mean, geometric CV%, and the number n of subjects that were included in the natural logarithmic transformation). In SAD and MAD, dose proportionality was assessed. Formal statistical analysis was performed on the log-transformed PK parameters AUC(0-last), AUC(0-inf), and Cmax for SAD (day 1), and AUC(0-tau) and Cmax for MAD (day 1 and day 7) to assess dose proportionality using the following power model: loge (AUC or Cmax) = µ + βx loge (dose). The estimate obtained for β is a measure of dose proportionality. The estimate of β together with its 90% confidence interval (CI) (βl, βu) was used to quantify the degree of non-proportionality. In MAD, formal statistical analysis was performed on the PK parameters AUC(0-tau) and Cmax to assess dose accumulation. Log-transformed AUC(0-tau) and Cmax was subjected to a mixed-effects model with treatment (dose level), day (day 1 or 7) and treatment-by-day interaction as fixed effects and subject as a random effect. The adjusted means obtained from the model, including differences for each comparison of interest and the associated 90% CIs, was back-transformed on the log scale to obtain adjusted geometric means, adjusted geometric mean ratios (GMRs) and 90% CIs of the ratio. The GMRs and 90% CIs were provided for each treatment and overall, i.e., day 7/day 1. […]", "key": {"[1]": {"conditions": "human, plasma, fed (high-fat breakfast)"}}, "note": "Like-named read-outs stand apart in the source and are kept apart here.", "data": [{"smiles": "Brc1cccc(-c2cc(-c3ccc4c(c3)OCO4)n[nH]2)c1", "note": "[anle138b, 3-(1,3-benzodioxol-5-yl)-5-(3-bromophenyl)-1H-pyrazole]", "values": [{"measurement": "Time point of last quantifiable data (range of subjects)", "setting": "FES 150 mg", "result": "24 to 48", "unit": "h"}, {"measurement": "Effect of food on Cmax", "setting": "FES 150 mg, fed vs fasted", "result": "decreased by about half"}, {"measurement": "Food effect on AUC", "setting": "FES 150 mg, fed vs fasted", "result": "clinically insignificant"}, {"measurement": "bioavailability", "setting": "human, plasma, oral, FES 150 mg, 90% CI: 61%, 88%, read-out: Dose bioavailable in the fed state compared to the fasted state", "result": "~74", "unit": "%"}, {"measurement": "Cmax", "setting": "human, plasma, fasted", "result": 442, "unit": "ng/mL"}, {"measurement": "AUC(0-t)", "setting": "human, plasma, fasted", "result": 896, "unit": "ng·h/mL"}, {"measurement": "Cmax", "setting": "[1]", "result": 196, "unit": "ng/mL"}, {"measurement": "AUC(0-t)", "setting": "[1]", "result": 641, "unit": "ng·h/mL"}]}]}
